In brackets after ≈: the same amount, converted by molar mass. Several values for one entry are separate records, joined by “and”; a condition that tells them apart may be missing. Equal entries are not always repeated. Where two headings read alike, the source gives them in different places.
Legend:
C. difficile = assay: microbe, parasite or virus in culture; assay type: cell-based, Clostridium difficile
Method: MIC testing for C. difficile was performed by Eurofins Panlabs Taiwan LTD based on modifications from the CLSI M11-A8 broth dilution method for Bacteroides fragilis susceptibility testing. Briefly, Reinforced Clostridial Medium (RCM) was pre-reduced by over-night incubation in an anaerobic chamber (80% N2, 10% CO2, and 10% H2) prior to use. MU1140 and variants were dissolved in 100% DMSO, diluted by 2-fold serial dilution in 100% DMSO, for a total of 11 concentrations. A 4 μL aliquot of each dilution was added to 96 μL RCM in wells of a 96 well plate using a Biomek FX instrument (Beckman Coulter, USA), followed by the addition of C. difficile suspension, in RCM, 100 μL/well. The final bacterial count was 2 x 10^5 to 1 x 10^6 colony forming units/mL, in 200 μL per assay well. […] Assay plates were incubated at 35°C for 46 to 48 hr in the anaerobic chamber (A35 Anaerobic Workstation, Don Whitley, UK). Following incubation, test plates were visually examined and each well was scored for growth then the MIC was recorded as the lowest concentration that results in complete inhibition of growth. Each test substance was evaluated in duplicate. Vehicle-control and vancomycin were used as blank and positive controls, respectively. The MIC values of the vancomycin controls were consistent with the historical data against test strains (data not shown).

[1] = 1.0 mg/mL in water
Method: Five aliquots of each compound were prepared by dissolving them to 1.0 mg/mL in HPLC grade water (Fisher Scientific, USA). A total of 2 aliquots of the solution were placed in a 37°C stability chamber, and 2 aliquots were placed in a 50°C chamber. Samples were collected on days 0, 2 and 7, centrifuged at 12,000 x g for 5 min, and the supernatants were transferred to a fresh tube. Each sample was diluted 1:4 with 0.05% trifluoroacetic acid (TFA) and the purity and quantity were analyzed by HPLC as described above.

[2] = Solubility 5% D-mannitol, 5% D-mannitol in water, visual assessment
Method: To that end, approximately 10 mg of each compound was weighed on a high-precision balance and dispensed into a 1.5 mL microfuge tube.
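Wherever Forced degradation Δ Conc is given: purity and concentration determined by HPLC on aqueous solutions kept in a stability chamber, with samples analyzed at day 0 and after incubation.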
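Wherever Forced degradation Δ Purity is given: purity and concentration determined by HPLC on aqueous solutions kept in a stability chamber, with samples analyzed at day 0 and after incubation.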

SMILES | MIC 50 (C. difficile) [µg/mL] | MIC 90 (C. difficile) [µg/mL] | MIC Mode (C. difficile) [µg/mL] | MIC Range (C. difficile) [µg/mL] | Minimum Inhibitory Concentration C. difficile 103-1 (C. difficile) [µg/mL] | Minimum Inhibitory Concentration C. difficile 107-1 (C. difficile) [µg/mL] | Minimum Inhibitory Concentration C. difficile ATCC 9689 (C. difficile) [µg/mL] | Minimum Inhibitory Concentration C. difficile ATCC 43597 (C. difficile) [µg/mL] | Minimum Inhibitory Concentration C. difficile ATCC BAA-1805 (C. difficile) [µg/mL] | Minimum Inhibitory Concentration C. difficile ATCC BAA-1808 (C. difficile) [µg/mL] | Minimum Inhibitory Concentration C. difficile ATCC BAA-1874 (C. difficile) [µg/mL] | Minimum Inhibitory Concentration C. difficile ATCC BAA-1875 (C. difficile) [µg/mL] | Forced degradation Δ Conc ([1]; 2 Days at 37°C) | Forced degradation Δ Purity ([1]; 2 Days at 37°C) [%] | Forced degradation Δ Conc ([1]; 2 Days at +50°C) | Forced degradation Δ Purity ([1]; 2 Days at +50°C) [%] | Forced degradation Δ Conc ([1]; 7 Days at 37°C) | Forced degradation Δ Purity ([1]; 7 Days at 37°C) [%] | Forced degradation Δ Conc ([1]; 7 Days at +50°C) | Forced degradation Δ Purity ([1]; 7 Days at +50°C) [%] | other results
C=C1NC(=O)[C@H](Cc2c[nH]c3ccccc23)NC(=O)[C@H](NC(=O)[C@H](CCCCN)NC(=O)[C@@H](N)CC(C)C)CSC[C@@H](C(=O)N[C@H]2C(=O)N3CCC[C@H]3C(=O)NCC(=O)N[C@H](C(=O)N[C@@H](C)C(=O)N[C@@H](CC(=O)O)C(=O)N/C(=C\C)C(=O)NCC(=O)N[C@@H]3CSC[C@@H]4NC(=O)[C@H](Cc5ccc(O)cc5)NC(=O)[C@@H](CS/C=C\NC4=O)NC(=O)[C@H](CC(N)=O)NC(=O)[C@H](Cc4ccccc4)NC3=O)CS[C@H]2C)NC(=O)[C@H](CC(C)C)NC1=O [OG705] | 1 (≈ 0.457 µM) | 2 (≈ 0.913 µM) | 1 (≈ 0.457 µM) | 0.5 to 2 | 0.5 | 2 | 1 | 1 | 1 | 1 | 1 | 1 | -11.4% and -11% | -0.29 | -11% | -1.32 | -12.3% and -12% | -0.61 | -26% | -3.22 | –
C=C1NC(=O)[C@H](Cc2c[nH]c3ccccc23)NC(=O)[C@H](NC(=O)[C@H](CCCCN)NC(=O)[C@@H](N)[C@@H](C)CC)CSC[C@@H](C(=O)N[C@H]2C(=O)N3CCC[C@H]3C(=O)NCC(=O)N[C@H](C(=O)N[C@@H](C)C(=O)N[C@@H](CC(N)=O)C(=O)N/C(=C\C)C(=O)NCC(=O)N[C@@H]3CSC[C@@H]4NC(=O)[C@H](Cc5ccc(O)cc5)NC(=O)[C@@H](CS/C=C\NC4=O)NC(=O)[C@H](CC(N)=O)NC(=O)[C@H](Cc4ccccc4)NC3=O)CS[C@H]2C)NC(=O)[C@H](CC(C)C)NC1=O [OG706] | 0.5 (≈ 0.228 µM) | 1 (≈ 0.457 µM) | 0.5 (≈ 0.228 µM) | 0.125 to 1 | 0.125 | 1 | 0.5 | 0.25 | 0.25 | 0.5 | 0.5 | 0.5 | -11.3% and -11% | -1.15 | -23% | -8.05 | -20% | -6.64 | -50.1% and -50% | -21.46 | solubility [2]: 18 to 24 mg/mL (≈ 8220 to 11000 µM)
C=C1NC(=O)[C@H](Cc2c[nH]c3ccccc23)NC(=O)[C@H](NC(=O)[C@H](CCCCN)NC(=O)[C@@H](N)CC(C)C)CSC[C@@H](C(=O)N[C@H]2C(=O)N3CCC[C@H]3C(=O)NCC(=O)N[C@H](C(=O)N[C@@H](C)C(=O)N[C@@H](CC(N)=O)C(=O)N/C(=C\C)C(=O)NCC(=O)N[C@@H]3CSC[C@@H]4NC(=O)[C@H](Cc5ccc(O)cc5)NC(=O)[C@@H](CS/C=C\NC4=O)NC(=O)[C@H](CC(N)=O)NC(=O)[C@H](Cc4ccccc4)NC3=O)CS[C@H]2C)NC(=O)[C@H](CC(C)C)NC1=O [OG712] | 0.25 (≈ 0.114 µM) | 0.5 (≈ 0.228 µM) | 0.25 (≈ 0.114 µM) | 0.125 to 0.5 | 0.125 | 0.5 | 0.5 | 0.25 | 0.25 | 0.25 | 0.25 | 0.5 | -4.6% and -5% | -0.21 | -8.7% and -9% | -3.01 | -9.3% and -9% | -4.63 | -45.2% and -45% | – | solubility [2]: 12 mg/mL (≈ 5480 µM)
C=C1NC(=O)[C@H](Cc2c[nH]c3ccccc23)NC(=O)[C@H](NC(=O)[C@H](CCCCN)NC(=O)[C@@H](N)CC(C)C)CSC[C@@H](C(=O)N[C@H]2C(=O)N3CCC[C@H]3C(=O)NCC(=O)N[C@H](C(=O)N[C@@H](C)C(=O)N[C@@H](C)C(=O)N/C(=C\C)C(=O)NCC(=O)N[C@@H]3CSC[C@@H]4NC(=O)[C@H](Cc5ccc(O)cc5)NC(=O)[C@@H](CS/C=C\NC4=O)NC(=O)[C@H](CC(N)=O)NC(=O)[C@H](Cc4ccccc4)NC3=O)CS[C@H]2C)NC(=O)[C@H](CC(C)C)NC1=O [OG713] | 0.5 (≈ 0.233 µM) | 0.5 (≈ 0.233 µM) | 0.5 (≈ 0.233 µM) | 0.25 to 0.5 | 0.25 | 0.5 | 0.5 | 0.5 | 0.25 | 0.5 | 0.5 | 0.5 | -11.9% and -12% | -0.06 | -16.9% and -17% | -1.51 | -8.8% and -9% | -0.56 | -41% | -6.98 | –
C=C1NC(=O)[C@H](Cc2c[nH]c3ccccc23)NC(=O)[C@H](NC(=O)[C@H](CCCCN)NC(=O)[C@@H](N)C(C)C)CSC[C@@H](C(=O)N[C@H]2C(=O)N3CCC[C@H]3C(=O)NCC(=O)N[C@H](C(=O)N[C@@H](C)C(=O)N[C@@H](CC(N)=O)C(=O)N/C(=C\C)C(=O)NCC(=O)N[C@@H]3CSC[C@@H]4NC(=O)[C@H](Cc5ccc(O)cc5)NC(=O)[C@@H](CS/C=C\NC4=O)NC(=O)[C@H](CC(N)=O)NC(=O)[C@H](Cc4ccccc4)NC3=O)CS[C@H]2C)NC(=O)[C@H](CC(C)C)NC1=O [OG716] | 0.25 (≈ 0.115 µM) | 0.5 (≈ 0.23 µM) | 0.5 (≈ 0.23 µM) | 0.25 to 0.5 | 0.25 | 0.5 | 0.5 | 0.25 | 0.25 | 0.25 | 0.5 | 0.5 | -7.4% and -7% | -0.31 | -16.9% and -17% | -3.67 | -14.8% and -15% | -5.20 | -47% | -19.77 | solubility [2]: 12 to 18 mg/mL (≈ 5520 to 8280 µM)
